Assay results from ChEMBL document CHEMBL5393453, “Compositions and methods of using the same for treatment of neurodegenerative and mitochondrial disease” (2021).

Test: Cytotoxicity against human HeLa cells expressing YFP parkin assessed as highest safety dose by DAPI staining analysis
Format: toxicity, cell-based
Conditions: read-out: Activity

Q: With `C[C@@H]1CN([C@H]2CCc3ccccc3[C@@H]2Nc2ncnc3[nH]c(C4CC4)cc23)C[C@H](C)O1` (single isomer, unassigned) as the compound, how does the MNTC read?
A: Its MNTC is 25 µM.

Q: Which MNTC does the source give for `C[S@](=N)(=O)C1CN([C@H]2COc3ccccc3[C@@H]2Nc2ncnc3[nH]c(C(F)(F)F)cc23)C1` (single isomer, unassigned) here?
A: The MNTC was 25 µM.

Q: For `C[C@@H]1CN([C@H]2CCc3ccccc3[C@@H]2Nc2ncnc3[nH]c(C(F)(F)F)cc23)C[C@H](C)O1` (single isomer, unassigned), which MNTC is on record?
A: Its MNTC is 25 µM.

Q: For `COC[C@H]1CCCN1[C@H]1COc2ccccc2[C@@H]1Nc1ncnc2[nH]c(C(F)(F)F)cc12` (single isomer, unassigned), which MNTC is on record?
A: The MNTC was 25 µM.

Q: Which MNTC does the source give for `FC(F)(F)c1cc2c(N[C@@H]3c4ccccc4CC[C@@H]3C3CCOCC3)ncnc2[nH]1` here?
A: Its MNTC is 25 µM.

Q: For `Fc1ccc2c(c1)OC[C@@H](N1CCOCC1)[C@@H]2Nc1ncnc2[nH]c(C3CC3)cc12` (single isomer, unassigned), which MNTC is on record?
A: Its MNTC is 25 µM.

Q: Which MNTC does the source give for `c1ccc2c(c1)OC[C@@H](C1CCOCC1)[C@H]2Nc1ncnc2[nH]c(C3CC3)cc12` here?
A: Its MNTC is 25 µM.

Q: Which MNTC does the source give for `Fc1ccc2c(c1)CC[C@H](N1C[C@H]3COC[C@H]3C1)[C@H]2Nc1ncnc2[nH]c(C(F)(F)F)cc12` (single isomer, unassigned) here?
A: Its MNTC is 25 µM.

Q: Which MNTC does the source give for `c1ccc2c(c1)CC[C@@H](C1CCOCC1)[C@@H]2Nc1ncnc2[nH]c(C3CC3)cc12` here?
A: Its MNTC is 25 µM.

Q: For `c1ccc2c(c1)CC[C@@H](N1C[C@H]3COC[C@@H]3C1)[C@@H]2Nc1ncnc2[nH]c(C3CC3)cc12`, which MNTC is on record?
A: Its MNTC is 25 µM.

Q: Which MNTC does the source give for `c1ccc2c(c1)OC[C@H](N1C[C@H]3COC[C@H]3C1)[C@H]2Nc1ncnc2[nH]c(C3CC3)cc12` (single isomer, unassigned) here?
A: Its MNTC is 25 µM.

Q: For `FC(F)(F)c1cc2c(N[C@@H]3c4ccccc4OC[C@H]3C3CCCOC3)ncnc2[nH]1` (some centres undefined), which MNTC is on record?
A: Its MNTC is 25 µM.

Q: With `CO[C@H]1CCN([C@@H]2COc3ccccc3[C@H]2Nc2ncnc3[nH]c(C(F)(F)F)cc23)C1` as the compound, how does the MNTC read?
A: Its MNTC is 25 µM.

Q: With `FC(F)(F)c1cc2c(N[C@@H]3c4ccccc4CC[C@H]3C3CCOCC3)ncnc2[nH]1` (single isomer, unassigned) as the compound, how does the MNTC read?
A: Its MNTC is 25 µM.

Q: Which MNTC does the source give for `OC(C1CCOCC1)C1COc2ccccc2C1Nc1ncnc2[nH]c(C(F)(F)F)cc12` (single isomer, unassigned) here?
A: The MNTC was 25 µM.

Q: For `Fc1cccc2c1CC[C@H](N1C[C@H]3COC[C@H]3C1)[C@H]2Nc1ncnc2[nH]c(C3CC3)cc12` (single isomer, unassigned), which MNTC is on record?
A: Its MNTC is 25 µM.

Q: For `C[C@@H]1CN([C@@H]2CCc3ccccc3[C@H]2Nc2ncnc3[nH]c(C(F)(F)F)cc23)CCO1` (single isomer, unassigned), which MNTC is on record?
A: Its MNTC is 25 µM.

Q: With `C[C@@H]1COCCN1[C@H]1CCc2ccccc2[C@@H]1Nc1ncnc2[nH]c(C3CC3)cc12` (single isomer, unassigned) as the compound, how does the MNTC read?
A: Its MNTC is 2.8 µM.

Q: Which MNTC does the source give for `C[C@@H]1CN([C@@H]2COc3cc(F)ccc3[C@H]2Nc2ncnc3[nH]c(C(F)(F)F)cc23)CCO1` here?
A: The MNTC was 25 µM.

Q: Which MNTC does the source give for `C[C@@H]1CN([C@@H]2COc3cc(F)ccc3[C@H]2Nc2ncnc3[nH]c(C4CC4)cc23)CCO1` here?
A: Its MNTC is 25 µM.

Q: With `[2H]C([2H])([2H])OC1CN([C@@H]2COc3ccccc3[C@H]2Nc2ncnc3[nH]c(C(F)(F)F)cc23)C1` as the compound, how does the MNTC read?
A: The MNTC was 25 µM.

Q: Which MNTC does the source give for `CS(=N)(=O)C1CN(C2COc3ccccc3C2Nc2ncnc3[nH]c(C(F)(F)F)cc23)C1` (centres undefined) here?
A: The MNTC was 25 µM.

Q: Which MNTC does the source give for `C[C@@H]1CN([C@@H]2CCc3ccccc3[C@H]2Nc2ncnc3[nH]c(C4CC4)cc23)CCO1` (single isomer, unassigned) here?
A: The MNTC was 25 µM.

Q: With `FC(F)(F)c1cc2c(N[C@H]3c4ccccc4OC[C@H]3N3CCOCC3)ncnc2[nH]1` as the compound, how does the MNTC read?
A: Its MNTC is 25 µM.

Q: Which MNTC does the source give for `C[C@@H]1CN([C@H]2COc3cc(F)ccc3[C@@H]2Nc2ncnc3[nH]c(C(F)(F)F)cc23)CCO1` here?
A: Its MNTC is 25 µM.

Q: For `c1ccc2c(c1)CC[C@@H](N1C[C@H]3COC[C@H]3C1)[C@@H]2Nc1ncnc2[nH]c(C3CC3)cc12` (single isomer, unassigned), which MNTC is on record?
A: Its MNTC is 25 µM.

Q: For `C[C@H]1CN([C@H]2COc3ccccc3[C@@H]2Nc2ncnc3[nH]c(C(F)(F)F)cc23)CCO1`, which MNTC is on record?
A: Its MNTC is 25 µM.

Q: Which MNTC does the source give for `c1ccc2c(c1)OC[C@@H](N1CCOCC1)[C@@H]2Nc1ncnc2[nH]c(C3CC3)cc12` (single isomer, unassigned) here?
A: Its MNTC is 25 µM.

Q: Which MNTC does the source give for `C[S@@](=N)(=O)C1CN(C2COc3ccccc3C2Nc2ncnc3[nH]c(C(F)(F)F)cc23)C1` (single isomer, unassigned) here?
A: Its MNTC is 25 µM.

Q: Which MNTC does the source give for `CN1CCN([C@H]2CCc3ccccc3[C@@H]2Nc2ncnc3[nH]c(C(F)(F)F)cc23)CC1` (single isomer, unassigned) here?
A: The MNTC was 25 µM.

Q: For `Fc1ccc2c(c1)CC[C@@H](N1C[C@@H]3COC[C@H]3C1)[C@@H]2Nc1ncnc2[nH]c(C(F)(F)F)cc12`, which MNTC is on record?
A: Its MNTC is 25 µM.

Q: With `CO[C@@H]1CCN([C@H]2COc3ccccc3[C@@H]2Nc2ncnc3[nH]c(C4CC4)cc23)C1` as the compound, how does the MNTC read?
A: Its MNTC is 25 µM.

Q: With `C[C@H]1CN([C@H]2COc3cc(F)ccc3[C@@H]2Nc2ncnc3[nH]c(C(F)(F)F)cc23)CCO1` as the compound, how does the MNTC read?
A: The MNTC was 25 µM.

Q: For `Fc1cccc2c1CC[C@@H](N1C[C@H]3COC[C@H]3C1)[C@@H]2Nc1ncnc2[nH]c(C(F)(F)F)cc12` (single isomer, unassigned), which MNTC is on record?
A: Its MNTC is 25 µM.

Q: With `C[C@@H]1COCCN1[C@@H]1CCc2ccccc2[C@H]1Nc1ncnc2[nH]c(C(F)(F)F)cc12` (single isomer, unassigned) as the compound, how does the MNTC read?
A: Its MNTC is 25 µM.

Q: With `FC(F)OC1CN([C@H]2COc3ccccc3[C@@H]2Nc2ncnc3[nH]c(C(F)(F)F)cc23)C1` as the compound, how does the MNTC read?
A: Its MNTC is 25 µM.

Q: For `c1ccc2c(c1)OC[C@@H](N1CCOCC1)[C@H]2Nc1ncnc2[nH]c(C3CC3)cc12`, which MNTC is on record?
A: The MNTC was 25 µM.

Q: Which MNTC does the source give for `c1ccc2c(c1)CC[C@@H](C1CCOCC1)[C@H]2Nc1ncnc2[nH]c(C3CC3)cc12` here?
A: The MNTC was 25 µM.

Q: Which MNTC does the source give for `COC[C@@H]1CCCN1[C@H]1COc2ccccc2[C@@H]1Nc1ncnc2[nH]c(C(F)(F)F)cc12` (single isomer, unassigned) here?
A: The MNTC was 25 µM.

Q: With `C[C@H]1CN([C@@H]2COc3ccccc3[C@H]2Nc2ncnc3[nH]c(C4CC4)cc23)CCO1` as the compound, how does the MNTC read?
A: Its MNTC is 25 µM.

Q: For `Fc1ccc2c(c1)OC[C@H](N1C[C@H]3COC[C@@H]3C1)[C@H]2Nc1ncnc2[nH]c(C(F)(F)F)cc12` (single isomer, unassigned), which MNTC is on record?
A: The MNTC was 25 µM.

Q: Which MNTC does the source give for `C[C@H]1CN([C@@H]2COc3cc(F)ccc3[C@H]2Nc2ncnc3[nH]c(C(F)(F)F)cc23)CCO1` here?
A: The MNTC was 25 µM.

Q: Which MNTC does the source give for `FC(F)(F)c1cc2c(N[C@H]3c4ccccc4OC[C@@H]3C3CCCOC3)ncnc2[nH]1` (single isomer, unassigned) here?
A: The MNTC was 25 µM.

Q: For `Fc1ccc2c(c1)OC[C@H](N1C[C@H]3COC[C@H]3C1)[C@H]2Nc1ncnc2[nH]c(C(F)(F)F)cc12` (single isomer, unassigned), which MNTC is on record?
A: The MNTC was 25 µM.

Q: With `C[C@H]1COCCN1[C@@H]1CCc2ccccc2[C@H]1Nc1ncnc2[nH]c(C(F)(F)F)cc12` (single isomer, unassigned) as the compound, how does the MNTC read?
A: The MNTC was 25 µM.

Q: For `C[C@@H]1CN([C@@H]2CCc3ccccc3[C@H]2Nc2ncnc3[nH]c(C(F)(F)F)cc23)C[C@H](C)O1` (single isomer, unassigned), which MNTC is on record?
A: Its MNTC is 25 µM.

Q: Which MNTC does the source give for `FC(F)(F)c1cc2c(N[C@H]3c4ccccc4CC[C@@H]3C3CCOCC3)ncnc2[nH]1` (single isomer, unassigned) here?
A: Its MNTC is 25 µM.

Q: Which MNTC does the source give for `FC(F)(F)c1cc2c(N[C@H]3c4ccccc4OC[C@@H]3N3CCOCC3)ncnc2[nH]1` (single isomer, unassigned) here?
A: The MNTC was 25 µM.

Q: With `C[C@H]1CN([C@@H]2CCc3ccccc3[C@H]2Nc2ncnc3[nH]c(C(F)(F)F)cc23)CCO1` (single isomer, unassigned) as the compound, how does the MNTC read?
A: The MNTC was 25 µM.
